From patent publication US6054435A, “6-O-substituted macrolides having antibacterial activity” (priority 1999, dated 2000)
≈ marks a conversion by molar mass, not a printed value.

How the values were obtained:
Experiment in all cases: in vitro antibacterial activity (MIC), agar dilution
Type in all cases: cell-based
[1] = system: Micrococcus luteus ATCC 4698; settings: organism code PP; BHI agar, 35-37° C., 20 to 24 hours; unit assumed
Procedure: (§1) Representative compounds of the present invention were assayed in vitro for antibacterial activity as follows: Twelve petri dishes containing successive aqueous dilutions of the test compound mixed with 10 mL of sterilized Brain Heart Infusion (BHI) agar (Difco 0418-01-5) were prepared. Each plate was inoculated with 1:100 (or 1:10 for slow-growing strains, such as Micrococcus and Streptococcus) dilutions of up to 32 different microorganisms, using a Steers replicator block. […] In addition, a control plate, using BHI agar containing no test compound, was prepared and incubated at the beginning and end of each test.
(§2) An additional plate containing a compound having known susceptibility patterns for the organisms being tested and belonging to the same antibiotic class as the test compound was also prepared and incubated as a further control, as well as to provide test-to-test comparability.
(§3) After incubation, each plate was visually inspected. The minimum inhibitory concentration (MIC) was defined as the lowest concentration of drug yielding no growth, a slight haze, or sparsely isolated colonies on the inoculum spot as compared to the growth control.

[2] = system: Escherichia coli SS; settings: organism code RR; BHI agar, 35-37° C., 20 to 24 hours; unit assumed
Procedure: as §1, §2, §3

[3] = system: Staphylococcus aureus A-5278; settings: organism code CC; BHI agar, 35-37° C., 20 to 24 hours; unit assumed
Procedure: as §1, §2, §3

[4] = system: Staphylococcus aureus A5177; settings: organism code BB; BHI agar, 35-37° C., 20 to 24 hours; unit assumed
Procedure: as §1, §2, §3

[5] = system: Streptococcus Pneumonia ATCC6303; settings: organism code XX; BHI agar, 35-37° C., 20 to 24 hours; unit assumed
Procedure: as §1, §2, §3

[6] = system: Streptococcus Pneumonia 5979; settings: organism code ZZ; BHI agar, 35-37° C., 20 to 24 hours; unit assumed
Procedure: as §1, §2, §3

[7] = system: Enterococcus faecium ATCC 8043; settings: organism code II; BHI agar, 35-37° C., 20 to 24 hours; unit assumed
Procedure: as §1, §2, §3

[8] = system: Streptococcus agalactiae CMX 508; settings: organism code KK; BHI agar, 35-37° C., 20 to 24 hours; unit assumed
Procedure: as §1, §2, §3

[9] = system: Candida albicans CCH 442; settings: organism code TT; BHI agar, 35-37° C., 20 to 24 hours; unit assumed
Procedure: as §1, §2, §3

[10] = system: Streptococcus Pneumonia 5649; settings: organism code ZZA; BHI agar, 35-37° C., 20 to 24 hours; unit assumed
Procedure: as §1, §2, §3

[11] = system: Staphylococcus aureus ATCC 6538P; settings: organism code AA; BHI agar, 35-37° C., 20 to 24 hours; unit assumed
Procedure: as §1, §2, §3

[12] = system: Staphylococcus aureus NCTC10649M; settings: organism code EE; BHI agar, 35-37° C., 20 to 24 hours; unit assumed
Procedure: as §1, §2, §3

[13] = system: Staphylococcus epidermidis 3519; settings: organism code HH; BHI agar, 35-37° C., 20 to 24 hours; unit assumed
Procedure: as §1, §2, §3

[14] = system: Streptococcus pyogenes 930; settings: organism code MM; BHI agar, 35-37° C., 20 to 24 hours; unit assumed
Procedure: as §1, §2, §3

[15] = system: Mycobacterium smegmatis ATCC 114; settings: organism code UU; BHI agar, 35-37° C., 20 to 24 hours; unit assumed
Procedure: as §1, §2, §3

[16] = system: Streptococcus pyogenes EES61; settings: organism code LL; BHI agar, 35-37° C., 20 to 24 hours; unit assumed
Procedure: as §1, §2, §3

[17] = system: Streptococcus pyogenes PIU 2548; settings: organism code NN; BHI agar, 35-37° C., 20 to 24 hours; unit assumed
Procedure: as §1, §2, §3

[18] = system: Haemophilis Influenzae DILL AMP R; settings: organism code WW; BHI agar, 35-37° C., 20 to 24 hours; unit assumed
Procedure: as §1, §2, §3

[19] = system: Staphylococcus aureus 1775; settings: organism code GG; BHI agar, 35-37° C., 20 to 24 hours; unit assumed
Procedure: as §1, §2, §3

[20] = system: Nocardia Asteroides ATCC9970; settings: organism code VV; BHI agar, 35-37° C., 20 to 24 hours; unit assumed
Procedure: as §1, §2, §3

[21] = system: Streptococcus bovis A-5169; settings: organism code JJ; BHI agar, 35-37° C., 20 to 24 hours; unit assumed
Procedure: as §1, §2, §3

[22] = system: Streptococcus Pneumonia GYR 1171; settings: organism code YY; BHI agar, 35-37° C., 20 to 24 hours; unit assumed
Procedure: as §1, §2, §3

[23] = system: Escherichia coli JUHL; settings: organism code QQ; BHI agar, 35-37° C., 20 to 24 hours; unit assumed
Procedure: as §1, §2, §3

[24] = system: Micrococcus luteus ATCC 9341; settings: organism code OO; BHI agar, 35-37° C., 20 to 24 hours; unit assumed
Procedure: as §1, §2, §3

[25] = system: Escherichia coli DC-2; settings: organism code SS; BHI agar, 35-37° C., 20 to 24 hours; unit assumed
Procedure: as §1, §2, §3

[26] = system: Staphylococcus aureus CMX 553; settings: organism code FF; BHI agar, 35-37° C., 20 to 24 hours; unit assumed
Procedure: as §1, §2, §3

[27] = system: Staphylococcus aureus CMX 642A; settings: organism code DD; BHI agar, 35-37° C., 20 to 24 hours; unit assumed
Procedure: as §1, §2, §3

| SMILES | MIC [1] | MIC [2] | MIC [3] | MIC [4] | MIC [5] | MIC [6] | MIC [7] | MIC [8] | MIC [9] | MIC [11] | MIC [12] | MIC [13] | MIC [14] | MIC [15] | MIC [16] | MIC [17] | MIC [18] | MIC [19] | MIC [20] | MIC [21] | other results |
| --- | --- | --- | --- | --- | --- | --- | --- | --- | --- | --- | --- | --- | --- | --- | --- | --- | --- | --- | --- | --- | --- |
| CC[C@H]1OC(=O)[C@H](C)C(=O)[C@H](C)[C@@H](O[C@@H]2O[C@H](C)C[C@H](N(C)C)[C@H]2O)[C@](C)(OCC#Cc2ccc(-c3cncc(C(=O)N(C)C)c3)s2)C[C@@H](C)C(=O)[C@H](C)[C@H]2NC(=O)O[C@@]21C [Example 11] | 0.2 µg/mL (≈ 0.231 µM) | 0.78 µg/mL (≈ 0.9 µM) | > 100 µg/mL | 0.2 µg/mL (≈ 0.231 µM) | 0.03 µg/mL (≈ 0.0346 µM) | 128 µg/mL (≈ 148 µM) | 0.39 µg/mL (≈ 0.45 µM) | 0.05 µg/mL (≈ 0.0577 µM) | > 100 µg/mL | 0.1 µg/mL (≈ 0.115 µM) | 0.2 µg/mL (≈ 0.231 µM) | 0.2 µg/mL (≈ 0.231 µM) | > 100 µg/mL | > 12.5 µg/mL | 0.02 µg/mL (≈ 0.0231 µM) | 0.39 µg/mL (≈ 0.45 µM) | 16 µg/mL (≈ 18.5 µM) | > 100 µg/mL | 0.2 µg/mL (≈ 0.231 µM) | 0.01 µg/mL (≈ 0.0115 µM) | MIC [10]: 1 µg/mL (≈ 1.15 µM); MIC [22]: 0.03 µg/mL (≈ 0.0346 µM); MIC [23]: > 100 µg/mL |
| CC[C@H]1OC(=O)[C@H](C)C(=O)[C@H](C)[C@@H](O[C@@H]2O[C@H](C)C[C@H](N(C)C)[C@H]2O)[C@](C)(OCC#Cc2ccc(-c3cncc(C(=O)NN(C)C)c3)s2)C[C@@H](C)C(=O)[C@H](C)[C@H]2NC(=O)O[C@@]21C [Example 12] | 0.39 µg/mL (≈ 0.442 µM) | 0.78 µg/mL (≈ 0.884 µM) | > 100 µg/mL | 0.39 µg/mL (≈ 0.442 µM) | 0.03 µg/mL (≈ 0.034 µM) | 1 µg/mL (≈ 1.13 µM) | 0.02 µg/mL (≈ 0.0227 µM) | 0.05 µg/mL (≈ 0.0567 µM) | > 100 µg/mL | 0.39 µg/mL (≈ 0.442 µM) | 0.39 µg/mL (≈ 0.442 µM) | 0.39 µg/mL (≈ 0.442 µM) | 50 µg/mL (≈ 56.7 µM) | 6.2 µg/mL (≈ 7.03 µM) | 0.05 µg/mL (≈ 0.0567 µM) | 0.78 µg/mL (≈ 0.884 µM) | 16 µg/mL (≈ 18.1 µM) | > 100 µg/mL | 0.2 µg/mL (≈ 0.227 µM) | 0.05 µg/mL (≈ 0.0567 µM) | MIC [10]: 1 µg/mL (≈ 1.13 µM); MIC [22]: 0.03 µg/mL (≈ 0.034 µM); MIC [23]: > 100 µg/mL |
| CC[C@H]1OC(=O)[C@H](C)C(=O)[C@H](C)[C@@H](O[C@@H]2O[C@H](C)C[C@H](N(C)C)[C@H]2O)[C@](C)(OC/C=C/c2cncc(-c3ccccc3)c2)C[C@@H](C)C(=O)[C@H](C)[C@H]2NC(=O)O[C@@]21C [Example 42] | 0.2 µg/mL (≈ 0.253 µM) | 0.78 µg/mL (≈ 0.985 µM) | > 100 µg/mL | 0.1 µg/mL (≈ 0.126 µM) | 0.03 µg/mL (≈ 0.0379 µM) | 32 µg/mL (≈ 40.4 µM) | 0.05 µg/mL (≈ 0.0631 µM) | 0.02 µg/mL (≈ 0.0253 µM) | > 100 µg/mL | 0.1 µg/mL (≈ 0.126 µM) | 0.2 µg/mL (≈ 0.253 µM) | 0.2 µg/mL (≈ 0.253 µM) | 50 µg/mL (≈ 63.1 µM) | 0.39 µg/mL (≈ 0.492 µM) | 0.02 µg/mL (≈ 0.0253 µM) | 0.2 µg/mL (≈ 0.253 µM) | 4 µg/mL (≈ 5.05 µM) | > 100 µg/mL | 0.2 µg/mL (≈ 0.253 µM) | 0.02 µg/mL (≈ 0.0253 µM) | MIC [24]: 0.02 µg/mL (≈ 0.0253 µM); MIC [25]: 50 µg/mL (≈ 63.1 µM); MIC [26]: 0.1 µg/mL (≈ 0.126 µM); MIC [22]: 0.03 µg/mL (≈ 0.0379 µM); MIC [27]: 0.2 µg/mL (≈ 0.253 µM); MIC [23]: 100 µg/mL (≈ 126 µM) |
| CC[C@H]1OC(=O)[C@H](C)C(=O)[C@H](C)[C@@H](O[C@@H]2O[C@H](C)C[C@H](N(C)C)[C@H]2O)[C@](C)(OC/C=C/c2cncc(-c3ccccn3)c2)C[C@@H](C)C(=O)[C@H](C)[C@H]2NC(=O)O[C@@]21C [Example 43] | 0.2 µg/mL (≈ 0.252 µM) | 0.39 µg/mL (≈ 0.492 µM) | > 100 µg/mL | 0.05 µg/mL (≈ 0.0631 µM) | ≤ 0.004 µg/mL | 64 µg/mL (≈ 80.7 µM) | 0.05 µg/mL (≈ 0.0631 µM) | 0.05 µg/mL (≈ 0.0631 µM) | > 100 µg/mL | 0.05 µg/mL (≈ 0.0631 µM) | 0.2 µg/mL (≈ 0.252 µM) | 0.1 µg/mL (≈ 0.126 µM) | 25 µg/mL (≈ 31.5 µM) | 0.78 µg/mL (≈ 0.984 µM) | 0.02 µg/mL (≈ 0.0252 µM) | 0.2 µg/mL (≈ 0.252 µM) | 2 µg/mL (≈ 2.52 µM) | > 100 µg/mL | 0.05 µg/mL (≈ 0.0631 µM) | 0.02 µg/mL (≈ 0.0252 µM) | MIC [24]: 0.02 µg/mL (≈ 0.0252 µM); MIC [25]: 25 µg/mL (≈ 31.5 µM); MIC [26]: 0.05 µg/mL (≈ 0.0631 µM); MIC [22]: ≤ 0.004 µg/mL; MIC [27]: 0.1 µg/mL (≈ 0.126 µM); MIC [23]: 50 µg/mL (≈ 63.1 µM) |
| CC[C@H]1OC(=O)[C@H](C)C(=O)[C@H](C)[C@@H](O[C@@H]2O[C@H](C)C[C@H](N(C)C)[C@H]2O)[C@](C)(OC/C=C/c2cncc(-c3cnc4ccccc4c3)c2)C[C@@H](C)C(=O)[C@H](C)[C@H]2NC(=O)O[C@@]21C [Example 44] | 0.1 µg/mL (≈ 0.119 µM) | 0.2 µg/mL (≈ 0.237 µM) | > 100 µg/mL | 0.1 µg/mL (≈ 0.119 µM) | ≤ 0.004 µg/mL | 8 µg/mL (≈ 9.49 µM) | 0.05 µg/mL (≈ 0.0593 µM) | 0.05 µg/mL (≈ 0.0593 µM) | > 100 µg/mL | 0.1 µg/mL (≈ 0.119 µM) | 0.2 µg/mL (≈ 0.237 µM) | 0.1 µg/mL (≈ 0.119 µM) | 6.2 µg/mL (≈ 7.35 µM) | 0.39 µg/mL (≈ 0.463 µM) | 0.01 µg/mL (≈ 0.0119 µM) | 0.1 µg/mL (≈ 0.119 µM) | 2 µg/mL (≈ 2.37 µM) | > 100 µg/mL | 0.1 µg/mL (≈ 0.119 µM) | 0.01 µg/mL (≈ 0.0119 µM) | MIC [24]: 0.01 µg/mL (≈ 0.0119 µM); MIC [25]: 50 µg/mL (≈ 59.3 µM); MIC [26]: 0.05 µg/mL (≈ 0.0593 µM); MIC [22]: ≤ 0.004 µg/mL; MIC [27]: 0.1 µg/mL (≈ 0.119 µM); MIC [23]: 100 µg/mL (≈ 119 µM) |
